Assay type in all cases: cell-based, human
One test has as its system LoVo-OXP cells. As to the kind of experiment: Cellular platinum uptake by GF-AAS. The conditions noted are these: LoVo-OXP resistant cells, 5 μM, 6, 24, 48 h, FIG. 2 panel B, compared with LoVo. On the procedure: LoVo and LoVo-OXP cells (2×10^6) were seeded in 75 cm^2 flasks in growth medium (20 ml). After 24 h, the medium was replaced and the cells incubated for different times (6, 24 or 48 h) in the presence of the tested complexes. Cell monolayers were washed twice with cold PBS and harvested. Samples were subjected to three freezing/thawing cycles at −80° C., and then vigorously vortexed. Aliquots were removed for the determination of protein content by the BioRad protein assay (BioRad). The samples were treated with 1 mL of highly pure nitric acid (Pt: ≦0.01 μg×kg^−1, TraceSELECT® Ultra, Sigma Chemical Co.) and transferred into a microwave teflon vessel. Subsequently, samples were submitted to a standard procedure using a speed wave MWS-3 Berghof instrument (Eningen, Germany). After cooling, each mineralized sample was analyzed for platinum by using a Varian AA Duo graphite furnace atomic absorption spectrometer (Varian, Palo Alto, Calif.; USA) at the wavelength of […]. The calibration curve was obtained using known concentrations of standard solutions purchased from Sigma Chemical Co.
It is well-known that cellular uptake is an important factor influencing drug efficacy. […] The intracellular platinum was quantified by means of GF-AAS analysis and the results, expressed as μg metal mg^−1 of cellular proteins, are summarized in FIG. 2.

Test [1] deals with LoVo MDR multidrug resistant colon carcinoma subline. As to the kind of experiment: MTT cytotoxicity assay, cross-resistance profile.
The next test deals with HCT-15. Kind of test: MTT cytotoxicity assay, 72 h. The conditions noted are these: HCT-15, colon.
A further test deals with MCF-7. As to the kind of experiment: MTT cytotoxicity assay, 72 h. The conditions noted are these: MCF-7, breast.
The test system of a further test is A431. As to the kind of experiment: MTT cytotoxicity assay, 72 h. The note with it: A431, cervix.
Another test has as its system A375. As to the kind of experiment: MTT cytotoxicity assay, 72 h. The note with it: A375, skin.
The next test deals with DLD-1. Kind of test: MTT cytotoxicity assay, 72 h. The note with it: DLD-1, colon.
A further test has as its system SW480. Kind of test: MTT cytotoxicity assay, 72 h. The note with it: SW480, colon.

“Also recorded” adds a separate entry of the source.

`O=C1[O][Pt-2]2([NH2+]C3CCCC[C@H]3[NH2+]2)[O]C1=O` (stereo partly drawn) [oxaliplatin, [(1R,2R)-cyclohexane-1,2diamine](ethanedioato)platinum(II), reference compound]: the intracellular platinum accumulation result in the test on LoVo-OXP cells is reported as “remarkably decreased; also recorded: decreases remarkably”. Moreover, the “R.F. (resistance factor)” value in test [1] (IC50 LoVo-MDR / IC50 LoVo) worked out at 1.3. Further, the 50% inhibitory concentration (IC50) in test [1] (LoVo-MDR, 72 h, MTT) was 1.36 ± 0.81 µM; in the test with HCT-15 it was 1.25 ± 1.05 µM; with MCF-7 it was 3.36 ± 1.69 µM; in the test on A431, 3.69 ± 1.03 µM; in the test with A375, 2.37 ± 1.31 µM; with DLD-1, 5.81 ± 1.93 µM. For the same compound, inhibition in the test with SW480 was half-maximal at 4.2 ± 0.75 µM (IC50).

These data come from patent US9220705B2, “Method of treating colorectal cancer” (priority 2013, dated 2015).
